The results in this text go back to paper PMC4396695, “Structure of the Ribosomal Oxygenase OGFOD1 Provides Insights into the Regio- and Stereoselectivity of Prolyl Hydroxylases” (Structure(London, England:1993), 2015).

A word on the IC50: it is the concentration that gives 50% inhibition. A low value points to inhibition by little substance.

Each structure is given as a SMILES string.

The target in experiment [1] is T1, OGFOD1 (Homo sapiens, UniProt Q8N543).
T1 sequence (Q8N543 1-542): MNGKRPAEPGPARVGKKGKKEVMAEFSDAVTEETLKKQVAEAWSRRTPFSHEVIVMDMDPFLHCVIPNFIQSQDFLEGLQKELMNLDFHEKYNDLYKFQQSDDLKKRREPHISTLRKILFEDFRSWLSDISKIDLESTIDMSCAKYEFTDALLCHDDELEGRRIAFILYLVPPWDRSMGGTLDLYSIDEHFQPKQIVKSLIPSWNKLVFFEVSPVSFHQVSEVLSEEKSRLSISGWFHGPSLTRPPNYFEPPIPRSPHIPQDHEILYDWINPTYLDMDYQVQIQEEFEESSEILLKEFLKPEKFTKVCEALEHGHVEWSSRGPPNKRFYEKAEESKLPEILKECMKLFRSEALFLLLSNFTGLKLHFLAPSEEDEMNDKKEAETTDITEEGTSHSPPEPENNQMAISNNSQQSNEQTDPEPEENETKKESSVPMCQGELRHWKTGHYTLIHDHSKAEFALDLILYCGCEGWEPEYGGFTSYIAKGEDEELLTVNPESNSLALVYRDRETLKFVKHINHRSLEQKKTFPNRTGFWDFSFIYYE
The experiment can be described thus: X-ray crystal structure, […] Å (also enzyme inhibition, Figure 6A). Also on record: full-length (542 aa), N-terminal hexa-histidine tag. It is filed as binding.

Experiment [2] deals with T2, Tpa1p (Saccharomyces cerevisiae, UniProt P40032).
T2 construct: gene TPA1; full-length (644 aa), N-terminal hexa-histidine tag
T2 sequence (P40032 whole entry): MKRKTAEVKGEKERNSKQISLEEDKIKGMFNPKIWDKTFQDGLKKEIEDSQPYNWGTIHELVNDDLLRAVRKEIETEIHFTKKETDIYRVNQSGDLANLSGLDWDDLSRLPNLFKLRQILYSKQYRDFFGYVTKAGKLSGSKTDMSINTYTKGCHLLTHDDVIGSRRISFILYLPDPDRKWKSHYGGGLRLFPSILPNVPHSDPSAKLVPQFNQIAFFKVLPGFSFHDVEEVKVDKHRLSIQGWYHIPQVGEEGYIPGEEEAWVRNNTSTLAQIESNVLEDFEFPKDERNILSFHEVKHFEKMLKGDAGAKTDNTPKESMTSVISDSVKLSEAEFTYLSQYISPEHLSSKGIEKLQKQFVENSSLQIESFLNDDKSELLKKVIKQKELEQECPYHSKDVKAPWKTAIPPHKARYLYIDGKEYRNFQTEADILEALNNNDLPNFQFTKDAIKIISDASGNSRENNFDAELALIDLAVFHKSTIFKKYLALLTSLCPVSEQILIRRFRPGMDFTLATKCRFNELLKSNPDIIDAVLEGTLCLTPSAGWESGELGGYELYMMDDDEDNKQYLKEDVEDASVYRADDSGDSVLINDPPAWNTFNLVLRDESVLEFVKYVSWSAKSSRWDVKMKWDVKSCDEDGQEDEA
The experiment can be described thus: X-ray crystal structure, […] Å. It is filed as binding.

Experiment [3] concerns the target T1, OGFOD1. The experiment can be described thus: hydroxylation of uS12 […]-70 peptide by MALDI-TOF MS. It is filed as biochemical. The arrangement: 542 aa, N-terminal hexa-histidine tag.
Experiment [4] addresses T2, Tpa1p. The experiment can be described thus: X-ray crystal structure, […] Å. The experiment is classed as binding. The source holds these as a separate data set.

On to `O=C(O)CNC(=O)C(=O)O` [N-oxalylglycine], for which the “X-ray crystal structure, 2.1 Å (also enzyme inhibition, Figure 6A)” value at OGFOD1 [1] was “With OGFOD1 the C-5 carboxylate of NOG is positioned to form hydrogen bonds to the side chains of Tyr169 and Arg230”. In addition, on Tpa1p [2], the “X-ray crystal structure, 2.8 Å” value was “OGFOD1 and Tpa1p bind NOG similarly”.
At OGFOD1 [3], `O=C(O)CNC(=O)c1nc(Cl)c2ccccc2c1O` [IOX3, 1-chloro-4-hydroxyisoquinoline-3-carbonylglycine] registered an IC50 of 0.52 ± 0.08 µM. Moreover, at Tpa1p [4], the “X-ray crystal structure, 1.9 Å” value was “In Tpa1p, IOX3 binds similarly to NOG with its glycyl side chain carboxylate positioned to form a salt bridge”.
